Test results from US12091402B2 (Avilar Therapeutics, Inc., priority 2021, dated 2024).
Read-outs that look alike come from different tables or passages of the source.

Tests used:
IgG = test: Affinity to IgG by surface plasmon resonance (SPR); type: binding
Protocol: Immobilization levels ranging from 1000-1300 resonance units (RU) are obtained. The running buffer is 10 mM HEPES, pH 7.4, 400 mM NaCl, 0.005% P20, […].

[1] = biological target: T1, ASGPR receptor on the cell surface (HepG2 cells) (Homo sapiens, UniProt P07306); test: Ternary complex formation assay (flow cytometry, HepG2); type: cell-based
T1 construct: host or cells: HepG2
T1 sequence (P07306 1-291): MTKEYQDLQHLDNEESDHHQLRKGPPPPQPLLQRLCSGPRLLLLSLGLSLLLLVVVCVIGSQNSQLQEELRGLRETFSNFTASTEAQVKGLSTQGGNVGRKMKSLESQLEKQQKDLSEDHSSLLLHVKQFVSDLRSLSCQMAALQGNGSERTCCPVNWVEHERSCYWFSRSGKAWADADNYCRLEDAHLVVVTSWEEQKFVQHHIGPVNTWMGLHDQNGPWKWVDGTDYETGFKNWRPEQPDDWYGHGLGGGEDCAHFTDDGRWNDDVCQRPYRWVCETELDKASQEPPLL
T1 sequence (P07307 1-311 partner): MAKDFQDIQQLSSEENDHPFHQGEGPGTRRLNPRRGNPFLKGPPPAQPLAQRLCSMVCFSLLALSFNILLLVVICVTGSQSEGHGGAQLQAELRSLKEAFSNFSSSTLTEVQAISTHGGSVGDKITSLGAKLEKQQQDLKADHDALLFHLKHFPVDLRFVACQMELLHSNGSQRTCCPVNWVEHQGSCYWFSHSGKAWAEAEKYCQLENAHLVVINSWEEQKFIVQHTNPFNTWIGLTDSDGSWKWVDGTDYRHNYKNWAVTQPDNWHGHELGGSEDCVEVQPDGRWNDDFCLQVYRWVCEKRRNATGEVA
How it was run: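 HepG2 cells (1×10^5/well) incubated 1 h at 4 °C with 100 nM AF488-labeled anti-human IgG plus serial IgG-based degrader, or 100 nM AF488 rabbit anti-DNP plus serial DNP-based degrader. After washing, cell-associated AF488 MFI read by flow cytometry; peak MFI marks optimal degrader concentration for ternary complex.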

HepG2 cells = test: Cellular uptake assay of AF488-labeled antibody (HepG2); type: cell-based; conditions: HepG2 cells
How it was run: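 HepG2 cells given 100 nM AF488-labeled human IgG or DNP antibody plus serial dilutions of matching degrader (0.1% DMSO final), 6 h at 37° C. Methanol-fixed, DAPI-stained and imaged by high-content analysis. Value is the fraction of AF488-positive cells over total DAPI-counted cells.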

ASGPR = biological target: T2, ASGPR (Homo sapiens, UniProt P07306); test: Affinity to ASGPR by surface plasmon resonance (SPR)
T2 sequence (P07306 1-291): T1 sequence (P07306 1-291)

[2] = HepG2 cells, ternary complex formation, read-out: TCF EC50
[3] = 100 nM AF488-labeled antibody, 37° C. for 6 hours, class symbols, read-out: Uptake Assay EC50
[4] = Biacore 8K, 25° C., IgG on CM5 chip, read-out: IgG SPR Binding Kd

CC(C)C[C@@H]1NC(=O)[C@H](Cc2cnc[nH]2)NC(=O)[C@H](Cc2c[nH]c3ccccc23)NC(=O)[C@H](C)NC(=O)[C@@H]2CSSC[C@H](NC(=O)[C@H](Cc3c[nH]c4ccccc34)NC(=O)[C@H](C(C)C)NC(=O)[C@H](CC(C)C)NC(=O)[C@H](CCC(=O)O)NC(=O)CNC1=O)C(=O)N[C@@H]([C@@H](C)O)C(=O)N1CCC[C@@H]1C(=O)N1C[C@@H](NC(=O)CNC(COCCC(=O)NC[C@H]3OC[C@H](Nc4cncc(C(F)(F)F)n4)[C@@H](O)[C@H]3O)COCCC(=O)NC[C@H]3OC[C@H](Nc4cncc(C(F)(F)F)n4)[C@@H](O)[C@H]3O)C[C@H]1C(=O)N[C@@H](CC(=O)O)C(=O)N2 [Compound 65]
Kd (IgG; SPR, read-out: IgG KD): < 100 nM
EC50 [1, 2]: < 100 nM
EC50 (HepG2 cells; read-out: Uptake EC50): < 100 nM
Kd (ASGPR): < 100 nM

CC(C)C[C@@H]1NC(=O)[C@H](Cc2cnc[nH]2)NC(=O)[C@H](Cc2c[nH]c3ccccc23)NC(=O)[C@H](C)NC(=O)[C@@H]2CSSC[C@H](NC(=O)[C@H](Cc3c[nH]c4ccccc34)NC(=O)[C@H](C(C)C)NC(=O)[C@H](CC(C)C)NC(=O)[C@H](CCC(=O)O)NC(=O)CNC1=O)C(=O)N[C@@H]([C@@H](C)O)C(=O)N1CCC[C@@H]1C(=O)N1C[C@@H](NC(=O)CCCc3cn(C[C@H]4OC[C@H](Nc5cncc(C(F)(F)F)n5)[C@@H](O)[C@H]4O)nn3)C[C@H]1C(=O)N[C@@H](CC(=O)O)C(=O)N2 [Compound 51]
Kd (IgG; SPR, read-out: IgG KD): < 100 nM
EC50 ([1]; HepG2 cells, 100 nM AF488-labeled antibody, 1 hour at 4° C., class symbols, read-out: Ternary Complex EC50): < 100 nM
EC50 [1, 2]: < 100 nM
EC50 (HepG2 cells; [3]): < 100 nM
EC50 (HepG2 cells; read-out: Uptake EC50): < 100 nM
Kd (ASGPR): < 100 nM
Kd (ASGPR; read-out: ASGPR KD, SPR): < 100 nM

CC(C)C[C@@H]1NC(=O)[C@H](Cc2cnc[nH]2)NC(=O)[C@H](Cc2c[nH]c3ccccc23)NC(=O)[C@H](C)NC(=O)[C@@H]2CSSC[C@H](NC(=O)[C@H](Cc3c[nH]c4ccccc34)NC(=O)[C@H](C(C)C)NC(=O)[C@H](CC(C)C)NC(=O)[C@H](CCC(=O)O)NC(=O)CNC1=O)C(=O)N[C@@H]([C@@H](C)O)C(=O)N1CCC[C@@H]1C(=O)N1C[C@@H](NC(=O)c3ccc(C(=O)NC[C@H]4OC[C@H](Nc5cncc(C(F)(F)F)n5)[C@@H](O)[C@H]4O)cc3)C[C@H]1C(=O)N[C@@H](CC(=O)O)C(=O)N2 [Compound 67]
Kd (IgG; SPR, read-out: IgG KD): < 100 nM
EC50 [1, 2]: > 1000 nM
EC50 (HepG2 cells; read-out: Uptake EC50): > 1000 nM
Kd (ASGPR): < 100 nM

CC(C)C[C@@H]1NC(=O)[C@H](Cc2c[nH]cn2)NC(=O)[C@H](Cc2c[nH]c3ccccc23)NC(=O)[C@H](C)NC(=O)[C@@H]2CSSC[C@H](NC(=O)[C@H](Cc3c[nH]c4ccccc34)NC(=O)[C@H](C(C)C)NC(=O)[C@H](CC(C)C)NC(=O)[C@H](CCC(=O)O)NC(=O)CNC1=O)C(=O)N[C@@H]([C@@H](C)O)C(=O)N1CCC[C@@H]1C(=O)N1C[C@@H](NC(=O)CCCc3cn(CCCCCC(=O)NC(COCCC(=O)NCCOCCOCCOCCOC[C@H]4OC[C@H](Nc5nccc(C(F)(F)F)n5)[C@@H](O)[C@H]4O)COCCC(=O)NCCOCCOCCOCCOC[C@H]4OC[C@H](Nc5nccc(C(F)(F)F)n5)[C@@H](O)[C@H]4O)nn3)C[C@H]1C(=O)N[C@@H](CC(=O)O)C(=O)N2 [Compound 53]
Kd (IgG; [4]): < 100 nM
Kd (IgG; SPR, read-out: IgG KD): < 100 nM
EC50 [1]: < 100 nM
EC50 ([1]; read-out: Ternary Complex EC50): < 100 nM
EC50 (HepG2 cells; [3]): < 100 nM
EC50 (HepG2 cells; read-out: Uptake EC50): < 100 nM
Kd (ASGPR): < 100 nM

CC(C)C[C@@H]1NC(=O)[C@H](Cc2cnc[nH]2)NC(=O)[C@H](Cc2c[nH]c3ccccc23)NC(=O)[C@H](C)NC(=O)[C@@H]2CSSC[C@H](NC(=O)[C@H](Cc3c[nH]c4ccccc34)NC(=O)[C@H](C(C)C)NC(=O)[C@H](CC(C)C)NC(=O)[C@H](CCC(=O)O)NC(=O)CNC1=O)C(=O)N[C@@H]([C@@H](C)O)C(=O)N1CCC[C@@H]1C(=O)N1C[C@@H](NC(=O)c3ccc4c(c3)C(=O)c3cc(C(=O)NC[C@H]5OC[C@H](Nc6cncc(C(F)(F)F)n6)[C@@H](O)[C@H]5O)ccc3-4)C[C@H]1C(=O)N[C@@H](CC(=O)O)C(=O)N2 [Compound 64]
Kd (IgG; SPR, read-out: IgG KD): < 100 nM
EC50 [1, 2]: < 100 nM
EC50 (HepG2 cells; read-out: Uptake EC50): 100 to 500 nM
Kd (ASGPR): < 100 nM

CC(C)C[C@@H]1NC(=O)[C@H](Cc2c[nH]cn2)NC(=O)[C@H](Cc2c[nH]c3ccccc23)NC(=O)[C@H](C)NC(=O)[C@@H]2CSSC[C@H](NC(=O)[C@H](Cc3c[nH]c4ccccc34)NC(=O)[C@H](C(C)C)NC(=O)[C@H](CC(C)C)NC(=O)[C@H](CCC(=O)O)NC(=O)CNC1=O)C(=O)N[C@@H]([C@@H](C)O)C(=O)N1CCC[C@@H]1C(=O)N1C[C@@H](NC(=O)CCOCCNC(=O)CCCc3cn(CCCCCC(=O)NC(COCCC(=O)NCCOCCOCCOCCOC[C@H]4OC[C@H](Nc5nccc(C(F)(F)F)n5)[C@@H](O)[C@H]4O)COCCC(=O)NCCOCCOCCOCCOC[C@H]4OC[C@H](Nc5nccc(C(F)(F)F)n5)[C@@H](O)[C@H]4O)nn3)C[C@H]1C(=O)N[C@@H](CC(=O)O)C(=O)N2 [Compound 6]
Kd (IgG; [4]): < 100 nM
EC50 [1]: < 100 nM
EC50 (HepG2 cells; [3]): < 100 nM
Kd (ASGPR): < 100 nM

CC(C)C[C@@H]1NC(=O)[C@H](Cc2cnc[nH]2)NC(=O)[C@H](Cc2c[nH]c3ccccc23)NC(=O)[C@H](C)NC(=O)[C@@H]2CSSC[C@H](NC(=O)[C@H](Cc3c[nH]c4ccccc34)NC(=O)[C@H](C(C)C)NC(=O)[C@H](CC(C)C)NC(=O)[C@H](CCC(=O)N(C)C)NC(=O)CNC1=O)C(=O)N[C@@H]([C@@H](C)O)C(=O)N1CCC[C@@H]1C(=O)N1C[C@@H](NC(=O)CNC(COCCC(=O)NCCOCCOCCOCCOC[C@H]3OC[C@H](Nc4cncc(C(F)(F)F)n4)[C@@H](O)[C@H]3O)COCCC(=O)NCCOCCOCCOCCOC[C@H]3OC[C@H](Nc4cncc(C(F)(F)F)n4)[C@@H](O)[C@H]3O)C[C@H]1C(=O)N[C@@H](C)C(=O)N2 [Compound 77]
Kd (IgG; SPR, read-out: IgG KD): < 100 nM
EC50 ([1]; TCF EC50, HepG2 cells, ternary complex formation): < 100 nM
EC50 (HepG2 cells; read-out: Uptake EC50): < 100 nM
Kd (ASGPR): < 100 nM

CC(C)C[C@@H]1NC(=O)[C@H](Cc2c[nH]cn2)NC(=O)[C@H](Cc2c[nH]c3ccccc23)NC(=O)[C@H](C)NC(=O)[C@@H]2CSSC[C@H](NC(=O)[C@H](Cc3c[nH]c4ccccc34)NC(=O)[C@H](C(C)C)NC(=O)[C@H](CC(C)C)NC(=O)[C@H](CCC(=O)O)NC(=O)CNC1=O)C(=O)N[C@@H]([C@@H](C)O)C(=O)N1CCC[C@@H]1C(=O)N1C[C@@H](NC(=O)CCOCCOCCOCCOCCNC(=O)CCCc3cn(CCCCCC(=O)NC(COCCC(=O)NCCOCCOCCOCCOC[C@H]4OC[C@H](Nc5nccc(C(F)(F)F)n5)[C@@H](O)[C@H]4O)COCCC(=O)NCCOCCOCCOCCOC[C@H]4OC[C@H](Nc5nccc(C(F)(F)F)n5)[C@@H](O)[C@H]4O)nn3)C[C@H]1C(=O)N[C@@H](CC(=O)O)C(=O)N2 [Compound 16]
Kd (IgG; [4]): < 100 nM
Kd (IgG; SPR, read-out: IgG KD): < 100 nM
EC50 [1]: < 100 nM
EC50 ([1]; read-out: Ternary Complex EC50): < 100 nM
EC50 (HepG2 cells; [3]): < 100 nM
EC50 (HepG2 cells; read-out: Uptake EC50): < 100 nM
Kd (ASGPR): < 100 nM
Kd (ASGPR; read-out: ASGPR KD): < 100 nM

CC(C)C[C@@H]1NC(=O)[C@H](Cc2cnc[nH]2)NC(=O)[C@H](Cc2c[nH]c3ccccc23)NC(=O)[C@H](C)NC(=O)[C@@H]2CSSC[C@H](NC(=O)[C@H](Cc3c[nH]c4ccccc34)NC(=O)[C@H](C(C)C)NC(=O)[C@H](CC(C)C)NC(=O)[C@H](CCC(=O)O)NC(=O)CNC1=O)C(=O)N[C@@H]([C@@H](C)O)C(=O)N1CCC[C@@H]1C(=O)N1C[C@@H](NC(=O)CCN3CCN(CC(=O)NC[C@H]4OC[C@H](Nc5cncc(C(F)(F)F)n5)[C@@H](O)[C@H]4O)CC3)C[C@H]1C(=O)N[C@@H](CC(=O)O)C(=O)N2 [Compound 63]
Kd (IgG; SPR, read-out: IgG KD): < 100 nM
EC50 [1, 2]: < 100 nM
EC50 (HepG2 cells; read-out: Uptake EC50): < 100 nM
Kd (ASGPR): 100 to 500 nM

CC(=O)N[C@H]1[C@H](OCCOCCOCCOCCNC(=O)CCOCC(COCCC(=O)NCCOCCOCCOCCO[C@@H]2O[C@H](CO)[C@H](O)[C@H](O)[C@H]2NC(C)=O)(COCCC(=O)NCCOCCOCCOCCO[C@@H]2O[C@H](CO)[C@H](O)[C@H](O)[C@H]2NC(C)=O)NC(=O)CCCCCn2cc(CCCC(=O)NCCOCCOCCOCCOCCC(=O)N[C@H]3C[C@H]4C(=O)N[C@@H](CC(=O)O)C(=O)N[C@H]5CSSC[C@H](NC(=O)[C@H](Cc6c[nH]c7ccccc67)NC(=O)[C@H](C(C)C)NC(=O)[C@H](CC(C)C)NC(=O)[C@H](CCC(=O)O)NC(=O)CNC(=O)[C@H](CC(C)C)NC(=O)[C@H](Cc6c[nH]cn6)NC(=O)[C@H](Cc6c[nH]c7ccccc67)NC(=O)[C@H](C)NC5=O)C(=O)N[C@@H]([C@@H](C)O)C(=O)N5CCC[C@@H]5C(=O)N4C3)nn2)O[C@H](CO)[C@H](O)[C@@H]1O [Compound 85]
Kd (IgG; SPR, read-out: IgG KD): < 100 nM
EC50 [1]: > 1000 nM
EC50 (HepG2 cells; read-out: Uptake EC50): > 1000 nM
Kd (ASGPR): 500 to 1000 nM
